Columns and labels:
[1] = tested on: A549; assay: Antiproliferative activity against human A549 cells assessed as reduction in cell growth incubated for 48 hrs by MTT assay; format: functional, cell-based; conditions: A549, 48 h
[2] = tested on: HT-29; assay: Antiproliferative activity against human HT-29 cells assessed as reduction in cell growth incubated for 48 hrs by MTT assay; format: functional, cell-based; conditions: HT-29, 48 h
[3] = tested on: HT-29; assay: Induction of cell cycle arrest in human HT-29 cells assessed as G2 phase accumulation at 15 uM incubated for 48 hrs by PI staining based flow cytometry analysis (reference value: 11.7 %); format: functional
[4] = tested on: HT-29; assay: Induction of apoptosis in human HT-29 cells assessed as viable cells at 15 uM incubated for 48 hrs by annexin V-FITC and PI staining based flow cytometry analysis (reference value: 88.2 %); format: functional; conditions: read-out: Activity
[5] = tested on: HT-29; assay: Induction of cell cycle arrest in human HT-29 cells assessed as G1 phase accumulation at 15 uM incubated for 48 hrs by PI staining based flow cytometry analysis (reference value: 56.39 %); format: functional
[6] = tested on: HT-29; assay: Induction of cell cycle arrest in human HT-29 cells assessed as subG1 phase accumulation at 15 uM incubated for 48 hrs by PI staining based flow cytometry analysis (reference value: 0.06 %); format: functional
[7] = tested on: HT-29; assay: Induction of apoptosis in human HT-29 cells assessed as early apoptotic cells at 15 uM incubated for 48 hrs by annexin V-FITC and PI staining based flow cytometry analysis (reference value: 1.01 %); format: functional
[8] = tested on: HT-29; assay: Induction of cell cycle arrest in human HT-29 cells assessed as S phase accumulation at 15 uM incubated for 48 hrs by PI staining based flow cytometry analysis (reference value: 36.98 %); format: functional
[9] = tested on: HT-29; assay: Induction of apoptosis in human HT-29 cells assessed as necrotic cells at 15 uM incubated for 48 hrs by annexin V-FITC and PI staining based flow cytometry analysis (reference value: 9.68 %); format: functional

| SMILES | IC50 [1] | IC50 [2] | further results |
| --- | --- | --- | --- |
| O=C(Nc1ccc(OC(=O)c2ccc(Cl)cc2)cc1)Nc1ccc(Cl)c(C(F)(F)F)c1 | 6.62 µM | 8.32 µM |  |
| O=C(Nc1ccccc1)Nc1ccc(OC(=O)c2ccccc2)cc1 | 81.2 µM | 123 µM |  |
| COc1ccc(C(=O)Oc2ccc(NC(=O)Nc3ccccc3)cc2)cc1 | 60.2 µM | 175 µM |  |
| Cc1ccc(C(=O)Oc2ccc(NC(=O)Nc3ccccc3)cc2)cc1 | 18.9 µM | 19.9 µM |  |
| O=C(Nc1ccccc1)Nc1ccc(NC(=O)c2ccccc2)cc1 | 23.9 µM | 12.7 µM |  |
| O=C(Nc1ccc(Cl)cc1)Nc1ccc(OC(=O)c2ccccc2)cc1 | 24.7 µM | 56 µM |  |
| CNC(=O)c1cc(Oc2ccc(NC(=O)Nc3ccc(Cl)c(C(F)(F)F)c3)cc2)ccn1 [SORAFENIB] | 5.62 µM | 17.3 µM | Activity [3]: 14.54%; viability at 15 µM [4]: 81.3%; Activity [5]: 75.23%; Activity [6]: 1.69%; Activity [7]: 5.76%; Activity [8]: 12.19%; Activity [9]: 8.72% |
| O=C(Nc1ccccc1)Nc1ccc(OC(=O)c2ccc(F)cc2)cc1 | 38.5 µM | 128 µM |  |
